From ChEMBL document CHEMBL4339239, “A Cytotoxic Indole Characterized by Incorporation of a Unique Carbon-Nitrogen Skeleton and Two Pentacyclic Corynanthean Alkaloids Incorporating a Substituted Tetrahydrofuranone Ring from Kopsia arborea” (J Nat Prod, 2019)
pIC50: −log10 of the molar value.

Test system: HT-29
Test: Cytotoxicity in human HT-29 cells assessed as inhibition of cell growth incubated for 72 hrs by MTT assay
Type: functional, cell-based
Settings: HT-29, 72 h

SMILES	pIC50
C=C1c2[nH]c3ccccc3c2C[C@H]2[N@]3CC[C@]12/C(=C\C)C3	5.21
C[C@H](O)[C@@]12CN3CCc4c([nH]c5ccccc45)[C@@H]3C[C@@H]1C(=O)CO2	< 4.52
